The results in this text go back to patent US4368203A, “Antibiotics and derivatives thereof having β-lactamase inhibitory activity and production thereof” (priority 1977, dated 1983).

Assay [1] concerns Serratia marcescens S-18. The assay is described as follows: MIC, broth dilution method. To be noted: S18, 20 h, read-out: Minimum inhibitory concentration.
Assay [2] deals with Proteus mirabilis P-6. The assay can be described thus: MIC, broth dilution method. To be noted: P6, 20 h, read-out: Minimum inhibitory concentration. For orientation: Broth dilution looks for growth in wells or tubes with falling amounts of substance.
The test system of assay [3] is Proteus rettgeri P-7. The assay can be described thus: MIC, broth dilution method. To be noted: Providencia rettgeri, P7, 20 h, read-out: Minimum inhibitory concentration.
Assay [4] relates to Proteus vulgaris P-5. The assay can be described thus: MIC, broth dilution method. The following applies: Proteus vulgaris, P5, 20 h, read-out: Minimum inhibitory concentration.
Assay [5] deals with T1, Exo-penicillinase of Bacillus licheniformis 749/C (ATCC 25972) (Bacillus licheniformis, UniProt P00808).
T1 construct: made in house; host or cells: Bacillus licheniformis 749/C (ATCC 25972)
The assay is described as follows: Susceptibility to beta-lactamase as enzymic substrate. The assay is classed as biochemical. The following applies: 15 minutes, 30° C., PS-6 3.3 μg/ml, optical density at 301 nm. As for the experimental part: (a) Exo-penicillinase of Bacillus licheniformis 749/C (ATCC 25972). Purified by cephalexin-Sepharose 4B (Pharmacia Fine Chemicals AB) affinity column chromatography. The potency of this enzyme preparation was 16,600 units/ml. when the hydrolysis of potassium penicillin G was measured by iodometry at 30° C. in M/10, pH 6.8, phosphate buffer. One unit of penicillinase means the amount of enzyme that can hydrolyze 1 micromole of penicillin G for 60 minutes at 30° C. with a pH 6.8.
Time course of the hydrolysis was traced at 30° C. by determining the decrease in optical density at 301 nm which corresponds specifically to the concentration of antibiotic PS-6. As described in Japanese Patent Application No. 94651/77, the antibiotic PS-5 sodium salt preparation gave a E1 cm^1% value of 267.5 at the λmax of 301 nm. If this preparation contained no water of crystallization, its epsilon value would be 8560.
As 5% of the initial optical density of antibiotic PS-5 at 301 nm remained even after the complete decomposition with hydroxylamine or beta-lactamase, the differential optical density of this substrate at 301 nm was supposed to be Δε=8132. This was supposed to be applicable to the antibiotic PS-6, and the following calculation was carried out.
(a) Exo-penicillinase of Bacillus licheniformis 749/C.

The test system of assay [6] is Klebsiella pneumoniae K-2. The assay can be described thus: MIC, broth dilution method. The following applies: Klebsiella pneumoniae, K2, 20 h, read-out: Minimum inhibitory concentration.
For assay [7], the system named is Proteus sp. P-22. The assay can be described thus: MIC, broth dilution method. The following applies: 20 h, read-out: Minimum inhibitory concentration.
The subject of assay [8] is Bacillus subtilis ATCC 6633. The assay is described as follows: MIC, broth dilution method. To be noted: ATCC6633, 20 h, read-out: Minimum inhibitory concentration.
Assay [9] concerns Diplococcus pneumoniae Type III. The assay is described as follows: MIC, broth dilution method. In kind it is cell-based. To be noted: Streptococcus pneumoniae; Table 7; no unit in the head; horse serum in the medium at 10%; read-out: Minimum inhibitory concentration.

Values after ≈ are worked out from the molar mass of the structure shown.

T1 sequence (P00808 43-307): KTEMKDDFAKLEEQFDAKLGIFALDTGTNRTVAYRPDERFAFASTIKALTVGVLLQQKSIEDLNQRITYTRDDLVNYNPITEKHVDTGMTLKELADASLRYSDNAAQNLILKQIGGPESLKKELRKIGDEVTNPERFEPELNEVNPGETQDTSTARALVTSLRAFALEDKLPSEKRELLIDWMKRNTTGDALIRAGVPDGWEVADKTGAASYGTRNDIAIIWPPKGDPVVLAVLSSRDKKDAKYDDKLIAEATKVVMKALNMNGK

Regarding `CC(=O)NCCSC1=C(C(=O)O)N2C(=O)C(C(C)C)C2C1` (stereo not drawn) [Antibiotic PS-6], the MIC in assay [1] was found to be 50 µg/mL (≈ 160 µM); in assay [2], 12.5 µg/mL (≈ 40 µM); in [3], 6.25 µg/mL (≈ 20 µM); in assay [4], 25 µg/mL (≈ 80 µM); in [6] it was 12.5 µg/mL (≈ 40 µM); in assay [7] it was 12.5 µg/mL (≈ 40 µM). Moreover, the MIC in assay [8] is 1.34 µg/mL (≈ 4.29 µM). Besides, the “Hydrolysis by the beta-lactamase” value in assay [5] is “without a substantial hydrolysis”.

Consider `CCC1C(=O)N2C(C(=O)O)=C(SC=CNC(C)=O)CC12` (stereo not drawn) [Antibiotic PS-7], for which the MIC in assay [9] is below 0.19 µg/mL.
